Measured values published in patent publication US20130210625A1, “SPIROHETEROCYCLIC PYRROLIDINE DERIVATIVES BASED PESTICIDES” (SYNGENTA CROP PROTECTION LLC, priority 2010, published 2013).

Experiments:
[1] = tested on: Myzus persicae (Green Peach Aphid); experiment: Activity against Myzus persicae, mixed population, feeding/residual contact activity, preventive (Example B1); type: in vivo; design: concentration or dose not given beside the values; conditions: foliar, 144 h, sunflower leaf discs sprayed, mortality checked after 6 days
Method: Activity Against Myzus persicae (Green Peach Aphid) (Mixed Population, Feeding/Residual Contact Activity, Preventive)
Sunflower leaf discs are placed on agar in a 24-well microtiter plate and sprayed with test solutions. After drying, the leaf discs are infested with an aphid population of mixed ages. After an incubation period of 6 days, samples are checked for mortality and special effects (e.g. phytotoxicity).

[2] = tested on: Tetranychus urticae (Two-Spotted Spider Mite); experiment: Activity against Tetranychus urticae, mixed population, feeding/residual contact activity, preventive (Example B4); type: in vivo; conditions: foliar, 192 h, bean leaf discs sprayed, egg, larval and adult mortality 8 days later
Excerpt: Activity Against Tetranychus urticae (Two-Spotted Spider Mite) (Mixed Population, Feeding/Residual Contact Activity, Preventive)
Bean leaf discs on agar in 24-well microtiter plates are sprayed with test solutions. After drying, the leaf discs are infested with mite populations of mixed ages. 8 days later, discs are checked for egg mortality, larval mortality, and adult mortality.

[3] = tested on: Myzus persicae (Green Peach Aphid); experiment: Activity against Myzus persicae on cabbage plants, feeding/residual contact activity (Example B5); type: in vivo; conditions: 144 h, infested cabbage plants, spray chamber, mortality 6 days after treatment
Method: Activity Against Myzus persicae (Green Peach Aphid) (Mixed Population, Feeding/Residual Contact Activity, Plant Damage Evaluation)
Cabbage plants infested with a mixed population of Myzus persicae are treated with diluted test solutions of the compounds in a spray chamber. 6 days after treatment, samples are checked for mortality and for plant damage (phytotoxicity), visual assessment being made using a 0-100% rating scale (100%=total damage to plant; 0%=no damage to plant).

[4] = tested on: Myzus persicae (Green Peach Aphid); experiment: Activity against Myzus persicae, mixed population, systemic/feeding activity, curative (Example B2); type: in vivo; conditions: 144 h, roots of infested pea seedlings in test solution, mortality 6 days after introduction
Excerpt: Activity Against Myzus persicae (Green Peach Aphid) (Mixed Population, Systemic/Feeding Activity, Curative)
Roots of pea seedlings, infested with an aphid population of mixed ages, are placed directly in the test solutions. 6 days after introduction, samples are checked for mortality and special effects on the plant.

[5] = tested on: Aphis craccivora (Cowpea Aphid); experiment: Activity against Aphis craccivora, mixed population, contact/feeding (Example B9); type: in vivo; conditions: 200 ppm; infested pea seedlings, spray chamber; mortality 6 days after treatment
Method: Activity Against Aphis craccivora (Cowpea Aphid) (Mixed Population, Contact/Feeding)
Pea seedlings, infested with an aphid population of mixed ages, are treated (2 replicates) with diluted test solutions in a spray chamber. 6 days after treatment, samples are checked for mortality.

SMILES	melting point	pest or weed control [1]	pest or weed control at 400 ppm [2]	pest or weed control at 200 ppm [3]	pest or weed control at 400 ppm [4]	activity [5]
CCOC(=O)OC1=C(c2cc(C(C)=O)ccc2C)C(=O)NC12CCN(OC)CC2 [Compound P1.2]	185 to 187 °C	–	–	–	–	–
C=Cc1cc(C)cc(C)c1C1=C(OC(=O)OCC)C2(CCN(OC)CC2)NC1=O [Compound P1.3]	–	> 80%	> 80%	≥ 80%	> 80%	–
C=Cc1cc(C)cc(C)c1C1=C(OC(=O)OCC)C2(CCN(OC)CC2)N(C)C1=O [Compound P1.4]	–	> 80%	> 80%	≥ 80%	–	–
C=Cc1cc(C)cc(C)c1C1=C(OC(=O)OCC)C2(CCN(OC)CC2)N(OC2CCCO2)C1=O (stereo not shown) [Compound P1.5, Carbonic acid 3-(2,4-dimethyl-6-vinyl-phenyl)-8-methoxy-2-oxo-1-(tetrahydro-furan-2-yloxy)-1,8-diaza-spiro[4.5]dec-3-en-4-yl ester ethyl ester]	–	> 80%	> 80%	≥ 80%	–	–
C=Cc1cc(C)c(C2=C(OC(=O)OCC)C3(CCN(OC)CC3)N(C)C2=O)c(C)c1 [Compound P1.6]	–	–	–	≥ 80%	–	over 80%
C#Cc1cc(C)cc(C)c1C1=C(OC(=O)OCC)C2(CCN(OC)CC2)NC1=O [Compound P1.7]	–	> 80%	> 80%	≥ 80%	> 80%	–
C#Cc1cc(C)cc(C)c1C1=C(OC(=O)OCC)C2(CCN(OC)CC2)N(C)C1=O [Compound P1.8]	–	> 80%	> 80%	≥ 80%	> 80%	–
C#Cc1cc(C)cc(C)c1C1=C(OC(=O)OCC)C2(CCN(OC)CC2)N(OC2CCCO2)C1=O (stereo not shown) [Compound P1.9]	–	> 80%	> 80%	≥ 80%	> 80%	–
C#Cc1ccc(C)cc1C1=C(OC(=O)OCC)C2(CCN(OC)CC2)NC1=O [Compound P1.10]	–	–	–	≥ 80%	–	–
C#Cc1ccc(C)cc1C1=C(OC(=O)OCC)C2(CCN(OC)CC2)N(OC)C1=O [Compound P1.11]	–	> 80%	> 80%	≥ 80%	–	–
C#Cc1cc(C)c(C2=C(OC(=O)OCC)C3(CCN(OC)CC3)NC2=O)c(C)c1 [Compound P1.12]	–	> 80%	–	≥ 80%	> 80%	–
C#Cc1cc(C)c(C2=C(OC(=O)OCC)C3(CCN(OC)CC3)N(C)C2=O)c(C)c1 [Compound P1.13]	–	> 80%	–	≥ 80%	> 80%	–
CC#Cc1cc(C)c(C2=C(OC(=O)OCC)C3(CCN(OC)CC3)N(C)C2=O)c(C)c1 [Compound P1.14]	–	–	> 80%	≥ 80%	> 80%	–
CON1CCC2(CC1)NC(=O)C(c1cc(C(C)=O)ccc1C)C2=O (stereo not shown) [Compound P2.1]	218 to 220 °C	–	–	–	–	–
COC(=O)c1ccc(C)c(C2C(=O)NC3(CCN(OC)CC3)C2=O)c1 (stereo not shown) [Compound P2.2]	245 to 247 °C	–	–	–	–	–
C=Cc1cc(C)cc(C)c1C1=C(O)C2(CCN(OC)CC2)NC1=O [Compound P2.3, 3-(2,4-Dimethyl-6-vinyl-phenyl)-4-hydroxy-8-methoxy-1,8-diaza-spiro[4.5]dec-3-en-2-one]	–	> 80%	> 80%	≥ 80%	–	–
C=Cc1cc(C)cc(C)c1C1=C(O)C2(CCN(OC)CC2)N(C)C1=O [Compound P2.4, 3-(2,4-Dimethyl-6-vinyl-phenyl)-4-hydroxy-8-methoxy-1-methyl-1,8-diaza-spiro[4.5]dec-3-en-2-one]	–	–	–	≥ 80%	–	–
C=Cc1cc(C)cc(C)c1C1=C(O)C2(CCN(OC)CC2)N(OC2CCCO2)C1=O (stereo not shown) [Compound P2.5, 3-(2,4-Dimethyl-6-vinyl-phenyl)-4-hydroxy-8-methoxy-1-(tetrahydro-furan-2-yloxy)-1,8-diaza-spiro[4.5]dec-3-en-2-one]	–	–	–	≥ 80%	–	–
C#Cc1cc(C)cc(C)c1C1C(=O)NC2(CCN(OC)CC2)C1=O (stereo not shown) [Compound P2.6]	–	> 80%	> 80%	≥ 80%	> 80%	–
C#Cc1cc(C)cc(C)c1C1C(=O)N(C)C2(CCN(OC)CC2)C1=O (stereo not shown) [Compound P2.7]	–	> 80%	> 80%	≥ 80%	–	–
C#Cc1cc(C)cc(C)c1C1C(=O)N(OC2CCCO2)C2(CCN(OC)CC2)C1=O (stereo not shown) [Compound P2.8]	–	> 80%	> 80%	≥ 80%	> 80%	–
C#Cc1ccc(C)cc1C1C(=O)N(OC)C2(CCN(OC)CC2)C1=O (stereo not shown) [Compound P2.10]	–	–	–	≥ 80%	–	–
C#Cc1cc(C)c(C2C(=O)NC3(CCN(OC)CC3)C2=O)c(C)c1 (stereo not shown) [Compound P2.11]	–	> 80%	–	≥ 80%	> 80%	–
C#Cc1cc(C)c(C2=C(O)C3(CCN(OC)CC3)N(C)C2=O)c(C)c1 [Compound P2.12, 3-(4-Ethynyl-2,6-dimethyl-phenyl)-4-hydroxy-8-methoxy-1-methyl-1,8-diaza-spiro[4.5]dec-3-en-2-one]	–	> 80%	–	≥ 80%	> 80%	–
CC#Cc1cc(C)c(C2=C(O)C3(CCN(OC)CC3)N(C)C2=O)c(C)c1 [Compound P2.13, 3-(2,6-Dimethyl-4-prop-1-ynyl-phenyl)-4-hydroxy-8-methoxy-1-methyl-1,8-diaza-spiro[4.5]dec-3-en-2-one]	–	–	–	≥ 80%	–	–
